This is an account of results in patent US11319279B2, “Antimicrobial compound and use thereof” (priority 2014, dated 2022).

Molecules are shown by their SMILES. In brackets after ≈: the same amount, converted by molar mass. Like-named read-outs stand apart in the source and are kept apart here.

Experiment [1] has as its system MRSA CCARM 3167. The experiment in a line: MIC by broth microdilution. Particulars: for MIC: Staphylococcus aureus, MRSA CCARM 3167, MHB, 20 hours. Type of experiment: cell-based, methicillin-resistant Staphylococcus aureus. For orientation: Dilution methods test growth across graded concentrations, often in twofold steps.
The subject of experiment [2] is E. coli CCARM 1356. Put plainly: MIC by broth microdilution. Type of experiment: cell-based, Escherichia coli. The note with it: for MIC: Escherichia coli, CCARM1356, E. coli CCARM 1356, MHB, 20 hours.
Experiment [3] concerns E. coli KTCT 1682. The experiment in a line: MIC by broth microdilution. The class given is cell-based. The note with it: Escherichia coli, KCTC1682; E. coli KTCT 1682 (KCTC 1682 in Table 4); MHB, 20 hours.
In experiment [4] the test system is Klebsiella pneumoniae KCTC 22057. The experiment in a line: MIC by broth microdilution. Type of experiment: cell-based. The note with it: KCTC22057, MHB, 20 hours.
Experiment [5] deals with Streptococcus pneumoniae KTCT 5412. Put plainly: MIC by broth microdilution. The note with it: KCTC5412, 20 h.
Method: (§1) A test microorganism was cultured in Mueller Hinton broth (MHB) and the antimicrobial activity was measured by the broth microdilution method. […] The compound was diluted in dimethylsulfoxide (DMSO) and the experiment was performed by adjusting the DMSO concentration to a 1/100 level. After culturing for 20 hours, the OD value was measured at 650 nm and the growth of the microorganism was examined.
In experiment [6] the test system is Enterococcus faecalis KTCT 5191. The experiment in a line: MIC by broth microdilution. The note with it: for MIC: Enterococcus faecalis, KCTC5191, 20 h.
Method: as §1
Experiment [7] deals with Pseudomonas aeruginosa KTCT 2004. The experiment in a line: MIC by broth microdilution. Particulars: KCTC2004, 20 h.
Method: as §1
Experiment [8] relates to Staphylococcus aureus 503. Put plainly: MIC by broth microdilution. The class given is cell-based. Particulars: MHB, 20 hours.
Experiment [9] has as its system Staphylococcus aureus 209. The experiment in a line: MIC by broth microdilution. Particulars: MHB, 20 hours. Type of experiment: cell-based.
Experiment [10] has as its system Staphylococcus aureus RN 4220. The experiment in a line: MIC by broth microdilution. The class given is cell-based. Particulars: RN4220, 20 h.
Experiment [11] has as its system MRSA CCARM 3506. The experiment in a line: MIC by broth microdilution. The class given is cell-based, methicillin-resistant Staphylococcus aureus. Particulars: Staphylococcus aureus, MHB, 20 hours.
Experiment [12] concerns QRSA CCARM 3505. The experiment in a line: MIC by broth microdilution. The class given is cell-based, quinolone-resistant Staphylococcus aureus. Particulars: Staphylococcus aureus, CCARM3505, MHB, 20 hours.
In experiment [13] the test system is QRSA CCARM 3519. Put plainly: MIC by broth microdilution. The class given is cell-based, quinolone-resistant Staphylococcus aureus. The note with it: Staphylococcus aureus, CCARM3519, MHB, 20 hours.
The subject of experiment [14] is Bacillus subtilis KCTC 1021. The experiment in a line: MIC by broth microdilution. Type of experiment: cell-based. The note with it: KCTC1021, MHB, 20 hours.
Experiment [15] deals with Bacillus subtilis KTCT 1661. Put plainly: MIC by broth microdilution. Type of experiment: cell-based.
For experiment [16], the system named is Enterococcus faecalis KTCT 3511. The experiment in a line: MIC by broth microdilution. Type of experiment: cell-based.
Experiment [17] has as its system Staphylococcus epidermidis KTCT 3958. Put plainly: MIC by broth microdilution. Type of experiment: cell-based.
Experiment [18] concerns Salmonella typhimurium KTCT 1926. The experiment in a line: MIC by broth microdilution. The class given is cell-based. The note with it: Salmonella enterica, MHB, 20 hours.
In experiment [19] the test system is Acinetobacter calcoaceticus KTCT 2357. The experiment in a line: MIC by broth microdilution. Type of experiment: cell-based.
Experiment [20] deals with Pseudomonas aeruginosa KTCT 2742. The experiment in a line: MIC by broth microdilution. Type of experiment: cell-based.
The test system of experiment [21] is Klebsiella aerogenes KTCT 2619. Put plainly: MIC by broth microdilution. Type of experiment: cell-based. Particulars: KTCT2619, MHB, 20 hours.
The subject of experiment [22] is Acinetobacter baumannii KCTC 2508. Put plainly: MIC by broth microdilution. The class given is cell-based. Particulars: KCTC2508, MHB, 20 hours.
Experiment [23] deals with S. aureus. Put plainly: MIC by broth microdilution, summary over S. aureus strains. The class given is cell-based. Particulars: Staphylococcus aureus; range over S. aureus strains of Table 2.
Experiment [24] concerns MRSA (CCARM3167, CCARM3506) and QRSA (CCARM 3505, CCARM 3519). The experiment in a line: MIC by broth microdilution, summary over MRSA and QRSA strains. The class given is cell-based. The note with it: Staphylococcus aureus; range over MRSA CCARM3167, CCARM3506 and QRSA CCARM 3505, CCARM 3519; read-out: MICs in MRSA and QRSA.
Experiment [25] relates to Escherichia coli. Put plainly: MIC by broth microdilution, summary over E. coli strains. The class given is cell-based. The note with it: range over E. coli strains of Table 2.
In experiment [26] the test system is Klebsiella aerogenes and Pseudomonas aeruginosa. The experiment in a line: MIC by broth microdilution, summary over Klebsiella and Pseudomonas strains. Type of experiment: cell-based. The note with it: range over strains of Table 2.
In experiment [27] the test system is VRE. Put plainly: Antimicrobial activity against VRE. Type of experiment: cell-based, vancomycin resistant enterococcus. The note with it: statement in words, refers to Example 5.
Experiment [28] concerns VISA. Put plainly: Antimicrobial activity against VISA. The note with it: statement in words, refers to Example 5. The class given is cell-based, vancomycin intermediate-resistant S. aureus.

For the compound `O=C(O)c1cn(C2CC2)c2cc(N3CCNCC3)c(F)cc2c1=O` [Ciprofloxacin, reference compound], the MIC in experiment [1] stood at 2 µg/mL (≈ 6.04 µM); in experiment [2], 64 µg/mL (≈ 193 µM); in [3] it was 0.003 µg/mL (≈ 0.00905 µM); in experiment [4], 0.006 µg/mL (≈ 0.0181 µM); in [5], 0.5 µg/mL (≈ 1.51 µM); in [6], 0.5 µg/mL (≈ 1.51 µM). This compound also displayed an MIC in experiment [7] of 0.06 µg/mL (≈ 0.181 µM).

Take `COC(C(N)=O)C(NC(=O)c1ccc(NC(=O)c2ccc([N+](=O)[O-])cc2)cc1)C(=O)Nc1ccc(C(=O)Nc2ccc(C(=O)Nc3ccc(C(=O)O)cc3OC(C)C)c(O)c2OC(C)C)cc1` (stereo not shown) [Coralmycin A]: the MIC in [8] came out at 1 µg/mL (≈ 1.09 µM); in experiment [9] it was 0.125 µg/mL (≈ 0.136 µM); in experiment [10], 0.063 µg/mL (≈ 0.0685 µM); in experiment [1], 0.125 µg/mL (≈ 0.136 µM); in experiment [11], 0.25 µg/mL (≈ 0.272 µM); in experiment [12], 1 µg/mL (≈ 1.09 µM). The MIC in [13] stood at 1 µg/mL (≈ 1.09 µM); in experiment [14], 0.063 µg/mL (≈ 0.0685 µM); in experiment [15] (KTCT1661, Bacillus subtilis KTCT 1661, MHB, 20 hours, read-out: MIC), 0.125 µg/mL (≈ 0.136 µM); in experiment [16] (KTCT3511, Enterococcus faecalis KTCT 3511, MHB, 20 hours, read-out: MIC) it was 0.125 µg/mL (≈ 0.136 µM); in [17] (KTCT3958, Staphylococcus epidermidis KTCT 3958, MHB, 20 hours, read-out: MIC) it was 0.125 µg/mL (≈ 0.136 µM); in experiment [18], 0.063 µg/mL (≈ 0.0685 µM). In addition, the MIC in experiment [19] (KTCT2357, Acinetobacter calcoaceticus KTCT 2357, MHB, 20 hours, read-out: MIC) was 0.25 µg/mL (≈ 0.272 µM); in experiment [2], 1 µg/mL (≈ 1.09 µM); in experiment [3], 0.5 µg/mL (≈ 0.544 µM); in [20] (KTCT2742, Pseudomonas aeruginosa KTCT 2742, MHB, 20 hours, read-out: MIC), 32 µg/mL (≈ 34.8 µM); in experiment [21], 8 µg/mL (≈ 8.7 µM); in experiment [22], 0.25 µg/mL (≈ 0.272 µM). For the same compound, the MIC in experiment [4] is 8 µg/mL (≈ 8.7 µM); in experiment [23], 0.06 to 1 µg/mL (≈ 0.0652 to 1.09 µM); in experiment [24] it was 0.1 to 1 µg/mL (≈ 0.109 to 1.09 µM); in experiment [25] it was 0.5 to 1 µg/mL (≈ 0.544 to 1.09 µM); in [26], 8 to 32 µg/mL (≈ 8.7 to 34.8 µM); in experiment [5], 2 µg/mL (≈ 2.17 µM). Also, the MIC in experiment [6] came out at 0.125 µg/mL (≈ 0.136 µM); in [7], 8 µg/mL (≈ 8.7 µM). Further, the “antimicrobial activity against VRE” value in experiment [27] is “confirmed”. Moreover, the “antimicrobial activity against VISA” value in experiment [28] is “confirmed”.

Consider `COC(C(N)=O)C(NC(=O)c1ccc(NC(=O)c2ccc([N+](=O)[O-])cc2)cc1)C(=O)Nc1ccc(C(=O)Nc2ccc(C(=O)Nc3ccc(C(=O)O)c(O)c3OC(C)C)c(O)c2OC(C)C)cc1` (stereo not shown) [Coralmycin B], for which the MIC in experiment [10] came to 0.015 µg/mL (≈ 0.016 µM); in experiment [1] it was 0.015 µg/mL (≈ 0.016 µM); in experiment [2], 0.125 µg/mL (≈ 0.134 µM); in experiment [3] it was 0.125 µg/mL (≈ 0.134 µM); in experiment [22], 0.125 µg/mL (≈ 0.134 µM); in [4], 2 µg/mL (≈ 2.14 µM). In addition, the MIC is 0.25 µg/mL (≈ 0.267 µM) in [5], 0.03 µg/mL (≈ 0.0321 µM) in [6] and 4 µg/mL (≈ 4.27 µM) in [7]. In addition, the “higher antimicrobial activity compared to ciprofloxacin” value was “at least 133 fold” in experiment [1] (in MRSA), “at least 426 fold” in experiment [2] (in Escherichia coli) and “at least 16 fold” in experiment [6] (in Enterococcus faecalis).

Turning to `Oc1cc(Cl)ccc1Oc1ccc(Cl)cc1Cl` [Triclosan, reference compound], the MIC in experiment [15] (Bacillus subtilis, KTCT1661, 20 h) is 2 µg/mL (≈ 6.91 µM); in [16] (Enterococcus faecalis, KTCT3511, 20 h), over 64 µg/mL; in experiment [17] (Staphylococcus epidermidis, KTCT3958, 20 h), 0.25 µg/mL (≈ 0.863 µM); in experiment [19] (Acinetobacter calcoaceticus, KTCT2357, 20 h), over 0.5 µg/mL; in experiment [20] (Pseudomonas aeruginosa, KTCT2742, 20 h), over 64 µg/mL; in [5] it was 64 µg/mL (≈ 221 µM). Moreover, the MIC in experiment [6] and in experiment [7] was over 64 µg/mL throughout.
